Consider 12 compounds from article PMC6259458, “Investigating the Spectrum of Biological Activity of Ring-Substituted Salicylanilides and Carbamoylphenylcarbamates” (Molecules, 2010).

Each structure is given as a SMILES string. Values after ≈ are worked out from the molar mass of the structure shown. Where two headings read alike, the source gives them in different places. Some results are limits rather than exact numbers.

Data set [1] in a line: Lipophilicity determination by RP-HPLC (capacity factor k / log k). The class given is physicochemical. The settings on record: C18 column, MeOH 70% / H2O 30%, isocratic. As for the experimental part:
Hydrophobicities (log P/Clog P) of the compounds 1-5 and 8-14 were calculated using two commercially available programs (ChemDraw Ultra 10.0 and ACD/LogP) and also measured by means of the RP-HPLC determination of capacity factors k with subsequent calculation of log k. The procedure was performed under isocratic conditions with methanol as an organic modifier in the mobile phase using an end-capped non-polar C18 stationary RP column. The results are shown in Table 1 and illustrated in Figure 1.
A Waters Alliance 2695 XE HPLC separation module and a Waters Photodiode Array Detector 2996 (Waters Corp., Milford, MA, USA) were used. A Symmetry® C18 5 μm, 4.6 × 250 mm, Part No. WAT054275 (Waters Corp., Milford, MA, USA) chromatographic column was used. The HPLC separation process was monitored by Empower™ 2 Chromatography Data Software, Waters 2009 (Waters Corp., Milford, MA, USA). A mixture of MeOH p.a. (70%) and H2O-HPLC – Mili-Q Grade (30%) was used as a mobile phase. The total flow of the column was 1.0 mL/min, injection volume 30 μL, column temperature 30 °C and sample temperature 10°C. The detection wavelength of 210 nm was chosen. The KI methanolic solution was used for the dead time (tD) determination. Retention times (tR) were measured in minutes. The capacity factors k were calculated using the Empower™ 2 Chromatography Data Software according to formula k = (tR - tD)/tD, where tR is the retention time of the solute, whereas tD denotes the dead time obtained using an unretained analyte. Log k, calculated from the capacity factor k, is used as the lipophilicity index converted to log P scale.

In data set [2] the test system is photosynthetic electron transport (PET) in spinach chloroplasts. Kind of data set: Inhibition of photosynthetic electron transport (PET) in spinach chloroplasts, DCPIP photoreduction. Type of data set: biochemical, Spinacia oleracea L. The settings on record: for IC50: DCPIP photoreduction, pH 7.2. Here is the method: Chloroplasts were prepared from spinach (Spinacia oleracea L.) according to Masarovicova and Kralova. The inhibition of photosynthetic electron transport (PET) in spinach chloroplasts was determined spectrophotometrically (Genesys 6, Thermo Scientific, USA), using an artificial electron acceptor 2,6-dichlorophenol-indophenol (DCIPP) according to Kralova et al., and the rate of photosynthetic electron transport was monitored as a photoreduction of DCPIP. The measurements were carried out in phosphate buffer (0.02 mol/L, pH 7.2) containing sucrose (0.4 mol/L), MgCl2 (0.005 mol/L) and NaCl (0.015 mol/L). The chlorophyll content was 30 mg/L in these experiments and the samples were irradiated (~100 W/m^2) from 10 cm distance with a halogen lamp (250 W) using a 4 cm water filter to prevent warming of the samples (suspension temperature 22 °C). The studied compounds were dissolved in DMSO due to their limited water solubility.

The subject of the next data set is Absidia corymbifera 272. Put plainly: In vitro anti-fungal susceptibility, broth microdilution. The class given is cell-based. As for the experimental part:
(§1) The broth microdilution test was used for the assessment of in vitro anti-fungal activity of the synthesized compounds against Absidia corymbifera 272 (AC) and Trichophyton mentagrophytes 445 (TM). Fluconazole (FLU) was used as the standard since it is a clinically used anti-mycotic drug. The procedure was performed with a two-fold dilution of the compounds in […]., Prague, Czech Republic) buffered to pH 7.0 with 0.165 mol of 3-morpholino-propane-1-sulfonic acid (MOPS, Sigma, Germany). […] Drug-free controls were included. […] The values of the minimum inhibitory concentration (MICs) were determined after 24 and 48 h of static incubation at 35 °C. For T. mentagrophytes, the final MICs were determined after 72 and 120 h of incubation.
(In broth dilution the organism is exposed to a series of concentrations in liquid medium.)

The subject of data set [3] is Trichophyton mentagrophytes 445. The description is as above. Type of data set: cell-based. The settings on record: MIC = IC50 value, NA = no significant activity. Here is the method:
as §1

In data set [4] the test system is methicilin resistant Staphylococcus aureus H 5996/08. Kind of data set: In vitro anti-bacterial susceptibility, Mueller-Hinton broth. Type of data set: cell-based. The settings on record: MRSA, methicillin-resistant Staphylococcus aureus, MIC = IC90 value, NA = no significant activity.
For data set [5], the system named is Staphylococcus epidermidis H 6966/08. Described as above. Type of data set: cell-based. The settings on record: MIC = IC90 value, NA = no significant activity.
On the set-up of data set [6]: method as in PMID 1151976. The settings on record: parameter of the substituents in the anilide part; cited from earlier work.
A short description of data set [7]: Solubility in the PET testing medium (observation). The class given is physicochemical. Conditions: precipitation during the experiments. An excerpt:
The activity of the rest of the studied compounds was moderate or low relative to the standard. PET inhibition by 8 or 9 could not be determined due to precipitation of the compounds during the experiments. With respect to these small but closed specifically substituted groups of compounds some structure-activity relationships (SAR) can be proposed.

The test system of data set [8] is photosynthetic apparatus of spinach chloroplasts (PS 2 / PS 1). Kind of data set: Site of action: restoration of PET by artificial electron donors (DPC, DCPIPH2). The class given is biochemical, Spinacia oleracea L. As for the experimental part: To further determine the site of action of the studied compounds, experiments with 1,5-diphenylcarbazide (DPC) were performed. DPC is an artificial electron donor for PS 2 with a known site of action in the Z^•/D^• intermediate. The site of action of the artificial electron acceptor 2,6-dichlorophenol-indophenol (DCPIP) used for monitoring the Hill reaction is plastoquinone on the acceptor side of PS 2 [51]. Thus, if the part of the photosynthetic electron transport chain between manganese cluster and Z/D is inhibited, then DPC will restore PET through PS 2.

Setting [9] is: Lichtheimia corymbifera, 272, 24 h, read-out: MIC AC 24 h.
Setting [10] is: Lichtheimia corymbifera, 272, 48 h, read-out: MIC AC 48 h.
[11] abbreviates: H6966/08, 24 h, read-out: MIC SE 24 h.
Where [12] appears, read: H6966/08, 48 h, read-out: MIC SE 48 h.

A word on the IC50: it is the concentration that gives 50% inhibition. High values mean lower potency, low ones higher potency. A word on the MIC: it is the lowest concentration found to suppress growth. In [1], `Cc1cccc(C)c1NC(=O)c1ccccc1O` [Compound 2, N-(2,6-Dimethylphenyl)-2-hydroxybenzamide] came in with a log k of 0.6807. The compound also displayed an IC50 in [2] of 331 µM. Besides, the MIC was greater than 250 µM in the data set with Absidia corymbifera 272 (setting [9]); greater than 250 µM in the data set with Absidia corymbifera 272 (setting [10]); 250 µM (≈ 60.3 µg/mL) in data set [3] (72 h, read-out: MIC TM 72 h); 500 µM (≈ 121 µg/mL) in [3] (120 h, read-out: MIC TM 120 h); greater than 500 µM in data set [4] (24 h, read-out: MIC MRSA 24 h); greater than 500 µM in [4] (48 h, read-out: MIC MRSA 48 h). The MIC in data set [5] (setting [11]) and in data set [5] (setting [12]) was greater than 500 µM throughout. For the same compound, the “MR (bulk parameter, reflecting bulkiness)” value (shortened to “MR”) in data set [6] was 9.4. Further, the “σ (Hammett's parameter)” value in data set [6] was 0.20.

`CCOc1ccccc1NC(=O)c1ccccc1O` [Compound 4, N-(2-Ethoxyphenyl)-2-hydroxybenzamide] registered a log k in [1] of 0.7515. Further, half-maximal inhibition in [2] (IC50) required 15 µM. In addition, the MIC with Absidia corymbifera 272 (setting [9]) came out at 62.5 µM (≈ 16.1 µg/mL); in the data set on Absidia corymbifera 272 (setting [10]) it was 125 µM (≈ 32.2 µg/mL); in data set [3] (72 h, read-out: MIC TM 72 h), 62.5 µM (≈ 16.1 µg/mL); in data set [3] (120 h, read-out: MIC TM 120 h), 62.5 µM (≈ 16.1 µg/mL); in [4] (24 h, read-out: MIC MRSA 24 h), 125 µM (≈ 32.2 µg/mL); in data set [4] (48 h, read-out: MIC MRSA 48 h) it was 125 µM (≈ 32.2 µg/mL). Also, the MIC in data set [5] (setting [11]) and in [5] (setting [12]) was 125 µM (≈ 32.2 µg/mL) throughout. Further, the “MR” value in data set [6] is reported as 11.3. Besides, the “σ (Hammett's parameter)” value in data set [6] is listed as 0.02.

The compound `CCCOc1ccccc1NC(=O)c1ccccc1O` [Compound 5, 2-Hydroxy-N-(2-propoxyphenyl)benzamide] gave a log k in data set [1] of 0.8401. Besides, it took 44.8 µM to reach half-maximal inhibition in data set [2] (IC50). Besides, the MIC in the data set on Absidia corymbifera 272 (setting [9]) is 31.2 µM (≈ 8.48 µg/mL); with Absidia corymbifera 272 (setting [10]) it was 31.2 µM (≈ 8.48 µg/mL); in [3] (72 h, read-out: MIC TM 72 h), 31.2 µM (≈ 8.48 µg/mL); in data set [3] (120 h, read-out: MIC TM 120 h), 31.2 µM (≈ 8.48 µg/mL); in data set [4] (24 h, read-out: MIC MRSA 24 h), 31.2 µM (≈ 8.48 µg/mL); in [4] (48 h, read-out: MIC MRSA 48 h) it was 31.2 µM (≈ 8.48 µg/mL). In addition, the MIC in [5] (setting [11]) and in data set [5] (setting [12]) was 31.2 µM (≈ 8.48 µg/mL) throughout. The “MR” value in [6] is given as 15.9.

For `O=C(Nc1ccccc1Cl)c1ccc([N+](=O)[O-])cc1` [Compound 8, N-(2-Chlorophenyl)-4-nitrobenzamide], the log k in data set [1] stood at 0.6782. For the same compound, in data set [7], the “solubility in the testing medium” value is recorded as “low solubility”. In data set [6], the “MR” value was 4.7 and the “σ (Hammett's parameter)” value was 0.67.

Consider `O=C(NCc1ccccc1Cl)c1ccc([N+](=O)[O-])cc1` [Compound 9, N-(2-Chlorobenzyl)-4-nitrobenzamide], for which the log k in [1] turned out to be 0.6966. Besides, the “solubility in the testing medium” value in [7] is reported as “low solubility”. In data set [6], the “MR” value is 4.7 and the “σ (Hammett's parameter)” value was 0.67.

In the case of `O=C(Nc1cc(C(F)(F)F)ccc1Cl)c1ccc([N+](=O)[O-])cc1` [Compound 10, N-[2-Chloro-5-(trifluoromethyl)phenyl]-4-nitrobenzamide], in data set [1], the log k was 0.8269. In [2], the “PET-inhibiting / biological activity in words” value is recorded as “medium PET inhibiting activity” and the IC50 stood at 50.1 µM. In addition, in data set [6], the “MR” value was 8.7 and the “σ (Hammett's parameter)” value is reported as 1.10.

On to `Nc1ccc(C(=O)NCc2ccccc2Cl)cc1` [Compound 11, 4-Amino-N-(2-chlorobenzyl)benzamide], for which, in data set [1], the log k was found to be 0.5886. In data set [2], the “PET-inhibiting / biological activity in words” value is “very low activity” and inhibition was half-maximal at 398 µM (IC50). In addition, in [6], the “MR” value is listed as 4.7 and the “σ (Hammett's parameter)” value is on record as 0.67.

On to `Nc1ccc(C(=O)Nc2cc(C(F)(F)F)ccc2Cl)cc1` [Compound 12, 4-Amino-N-[2-chloro-5-(trifluoromethyl)phenyl]benzamide], for which the “PET-inhibiting / biological activity in words” value in [2] is listed as “did not show any biological activity in any of the assays”. Moreover, in data set [6], the “MR” value is recorded as 8.7 and the “σ (Hammett's parameter)” value was 1.10.

The compound `COC(=O)Nc1ccc(C(=O)NCc2ccccc2Cl)cc1` [Compound 13, Methyl 4-(2-chlorobenzylcarbamoyl)phenylcarbamate] came in with a log k in [1] of 0.6345. In [2], this compound returned an IC50 of 1.6 µM. The “restoration of PET through PS 1 after addition of DCPIPH2” value in [8] (DCPIPH2 40 μmol/L added to treated chloroplasts) is on record as “completely restored”. For the same compound, the “restoration of PET through PS 2 after addition of DPC” value in data set [8] (DPC 2 mmol/L added to treated chloroplasts) is “not restored”. Further, in data set [6], the “MR” value is on record as 4.7 and the “σ (Hammett's parameter)” value is listed as 0.67.

With `COC(=O)Nc1ccc(C(=O)Nc2cc(C(F)(F)F)ccc2Cl)cc1` [Compound 14, Methyl 4-[2-chloro-5-(trifluoromethyl)phenylcarbamoyl]phenylcarbamate], the log k in data set [1] is 0.7782. In addition, in data set [2], half-maximal inhibition (IC50) was put at 1 µM. In addition, in data set [6], the “MR” value is reported as 8.7 and the “σ (Hammett's parameter)” value was 1.10.

As to `OC(Cn1cncn1)(Cn1cncn1)c1ccc(F)cc1F` [FLU, Fluconazole, reference compound], the MIC in the data set with Absidia corymbifera 272 (setting [9]) is greater than 125 µM; in the data set with Absidia corymbifera 272 (setting [10]), greater than 125 µM; in data set [3] (72 h, read-out: MIC TM 72 h), 1.95 µM (≈ 0.597 µg/mL); in data set [3] (120 h, read-out: MIC TM 120 h) it was 3.91 µM (≈ 1.2 µg/mL).

Regarding `CC1(C)S[C@@H]2[C@H](NC(=O)Cc3ccccc3)C(=O)N2[C@H]1C(=O)O` [PEN, Penicillin G, reference compound], the MIC worked out at 125 µM (≈ 41.8 µg/mL) in [4] (24 h, read-out: MIC MRSA 24 h); 125 µM (≈ 41.8 µg/mL) in [4] (48 h, read-out: MIC MRSA 48 h); 31.6 µM (≈ 10.6 µg/mL) in data set [5] (setting [11]); 125 µM (≈ 41.8 µg/mL) in [5] (setting [12]).
